# Results: US12655125B2 (SIRONAX LTD., priority 2020, dated 2026)
# pEC50: −log10 of the molar value.
# Tested on: HT-29 cells
# Assay: HT29 Cells 0FBS Assay In Vitro (TNF-α/SMAC mimetic/zVAD-FMK induced necroptosis, CellTiter-Glo cell viability)
# Type: cell-based
# Details: Homo sapiens; HT-29 cells, FBS free medium, TNF-α (10 ng/ml), SMAC mimetic (6 uM), zVAD-FMK (10 μM), 20 hours; geometric mean EC50; read-out: Cell activity (EC50) of Compounds 117-281
# Procedure, shortened: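 Viability was measured by ATP luminescence (CellTiter-Glo) after 20 h at 37° C of compound exposure in 10-point, 1:3 dilutions. Necroptosis in FBS-free HT-29 cultures was driven by a TNF-α (10 ng/ml), SMAC mimetic (6 μM) and zVAD-FMK (10 μM) cocktail. EC50 values are geometric means from duplicate curves.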
row,SMILES,pEC50
1,"Cc1nn(CCO)c(C)c1-c1ncc(F)c(OC2CN(C(=O)N3N=CC[C@H]3c3cc(F)cc(F)c3)C2)n1 [compound 156, (S)-(5-(3,5-difluorophenyl)-4,5-dihydro-1H-pyrazol-1-yl)(3-((5-fluoro-2-(1-(2-hydroxyethyl)-3,5-dimethyl-1H-pyrazol-4-yl)pyrimidin-4-yl)oxy)azetidin-1-yl)methanone]",7.00 to 10.00
2,"Cc1nn(C2CCOCC2)c(C)c1-c1cc(OC2CN(C(=O)N3N=CC[C@H]3c3cc(F)cc(F)c3)C2)c(F)cn1 [compound 157, (S)-(5-(3,5-difluorophenyl)-4,5-dihydro-1H-pyrazol-1-yl)(3-((2-(3,5-dimethyl-1-(tetrahydro-2H-pyran-4-yl)-1H-pyrazol-4-yl)-5-fluoropyridin-4-yl)oxy)azetidin-1-yl)methanone]",7.00 to 10.00
3,"Cc1nn(CC2CC2)c(C)c1-c1ncc(F)c(OC2CN(C(=O)N3N=CC[C@H]3c3cc(F)cc(F)c3)C2)n1 [compound 158, (S)-(3-((2-(1-(cyclopropylmethyl)-3,5-dimethyl-1H-pyrazol-4-yl)-5-fluoropyrimidin-4-yl)oxy)azetidin-1-yl)(5-(3,5-difluorophenyl)-4,5-dihydro-1H-pyrazol-1-yl)methanone]",7.00 to 10.00
4,"Cc1nn(C)c(C)c1-c1cc(OC2CN(C(=O)N3N=CC[C@H]3c3cc(F)cc(F)c3)C2)c(F)cn1 [compound 159, (S)-(5-(3,5-difluorophenyl)-4,5-dihydro-1H-pyrazol-1-yl)(3-((5-fluoro-2-(1,3,5-trimethyl-1H-pyrazol-4-yl)pyridin-4-yl)oxy)azetidin-1-yl)methanone]",7.00 to 10.00
5,"COCCNc1nn(C)c(-c2cc(OC3CN(C(=O)N4N=CC[C@H]4c4cc(F)cc(F)c4)C3)c(F)cn2)c1C [compound 160, (S)-(5-(3,5-difluorophenyl)-4,5-dihydro-1H-pyrazol-1-yl)(3-((5-fluoro-2-(3-((2-methoxyethyl)amino)-1,4-dimethyl-1H-pyrazol-5-yl)pyridin-4-yl)oxy)azetidin-1-yl)methanone]",7.00 to 10.00
6,"Cc1ccc(C(N)=O)n1-c1cc(OC2CN(C(=O)N3N=CC[C@H]3c3cc(F)cc(F)c3)C2)c(F)cn1 [compound 161, (S)-1-(4-((1-(5-(3,5-difluorophenyl)-4,5-dihydro-1H-pyrazole-1-carbonyl)azetidin-3-yl)oxy)-5-fluoropyridin-2-yl)-5-methyl-1H-pyrrole-2-carboxamide]",7.00 to 10.00
7,"Cc1c(NC(C)C)nn(C)c1-c1cc(OC2CN(C(=O)N3N=CC[C@H]3c3cc(F)cc(F)c3)C2)c(F)cn1 [compound 162, (S)-(5-(3,5-difluorophenyl)-4,5-dihydro-1H-pyrazol-1-yl)(3-((5-fluoro-2-(3-(isopropylamino)-1,4-dimethyl-1H-pyrazol-5-yl)pyridin-4-yl)oxy)azetidin-1-yl)methanone]",7.00 to 10.00
8,"Cc1c(NCC2CC2)nn(C)c1-c1cc(OC2CN(C(=O)N3N=CC[C@H]3c3cc(F)cc(F)c3)C2)c(F)cn1 [compound 163, (S)-(3-((2-(3-((cyclopropylmethyl)amino)-1,4-dimethyl-1H-pyrazol-5-yl)-5-fluoropyridin-4-yl)oxy)azetidin-1-yl)(5-(3,5-difluorophenyl)-4,5-dihydro-1H-pyrazol-1-yl)methanone]",7.00 to 10.00
9,"Cc1c(N(C)CC2CC2)nn(C)c1-c1cc(OC2CN(C(=O)N3N=CC[C@H]3c3cc(F)cc(F)c3)C2)c(F)cn1 [compound 164, (S)-(3-((2-(3-((cyclopropylmethyl)(methyl)amino)-1,4-dimethyl-1H-pyrazol-5-yl)-5-fluoropyridin-4-yl)oxy)azetidin-1-yl)(5-(3,5-difluorophenyl)-4,5-dihydro-1H-pyrazol-1-yl)methanone]",7.00 to 10.00
10,"Cc1c(C(N)=O)nn(C)c1-c1cc(OC2CN(C(=O)N3N=CC[C@H]3c3cc(F)cc(F)c3)C2)c(F)cn1 [compound 165, (S)-5-(4-((1-(5-(3,5-difluorophenyl)-4,5-dihydro-1H-pyrazole-1-carbonyl)azetidin-3-yl)oxy)-5-fluoropyridin-2-yl)-1,4-dimethyl-1H-pyrazole-3-carboxamide]",7.00 to 10.00
11,"CN(C)c1cc(-c2cc(OC3CN(C(=O)N4N=CC[C@H]4c4cc(F)cc(F)c4)C3)c(F)cn2)n(C)n1 [compound 166, (S)-(5-(3,5-difluorophenyl)-4,5-dihydro-1H-pyrazol-1-yl)(3-((2-(3-(dimethylamino)-1-methyl-1H-pyrazol-5-yl)-5-fluoropyridin-4-yl)oxy)azetidin-1-yl)methanone]",7.00 to 10.00
12,"CCS(=O)(=O)c1c(C)nn(-c2cc(OC3CN(C(=O)N4N=CC[C@H]4c4cc(F)cc(F)c4)C3)c(F)cn2)c1C [compound 167, (S)-(5-(3,5-difluorophenyl)-4,5-dihydro-1H-pyrazol-1-yl)(3-((2-(4-(ethylsulfonyl)-3,5-dimethyl-1H-pyrazol-1-yl)-5-fluoropyridin-4-yl)oxy)azetidin-1-yl)methanone]",7.00 to 10.00
13,"Cc1c(-c2cc(OC3CN(C(=O)N4N=CC[C@H]4c4cc(F)cc(F)c4)C3)c(F)cn2)c(CO)nn1CC1CC1 [compound 168, (S)-(3-((2-(1-(cyclopropylmethyl)-3-(hydroxymethyl)-5-methyl-1H-pyrazol-4-yl)-5-fluoropyridin-4-yl)oxy)azetidin-1-yl)(5-(3,5-difluorophenyl)-4,5-dihydro-1H-pyrazol-1-yl)methanone]",7.00 to 10.00
14,"Cc1c(-c2cc(OC3CN(C(=O)N4N=CC[C@H]4c4cc(F)cc(F)c4)C3)c(F)cn2)c(CO)nn1CC1COC1 [compound 169, (S)-(5-(3,5-difluorophenyl)-4,5-dihydro-1H-pyrazol-1-yl)(3-((5-fluoro-2-(3-(hydroxymethyl)-5-methyl-1-(oxetan-3-ylmethyl)-1H-pyrazol-4-yl)pyridin-4-yl)oxy)azetidin-1-yl)methanone]",5.00 to 6.00
15,"Cc1cc(C(F)(F)F)nn1-c1cc(OC2CN(C(=O)N3N=CC[C@H]3c3cc(F)cc(F)c3)C2)c(F)cn1 [compound 170, (S)-(5-(3,5-difluorophenyl)-4,5-dihydro-1H-pyrazol-1-yl)(3-((5-fluoro-2-(5-methyl-3-(trifluoromethyl)-1H-pyrazol-1-yl)pyridin-4-yl)oxy)azetidin-1-yl)methanone]",7.00 to 10.00
16,"CN(C)C(=O)c1cc(-c2cc(OC3CN(C(=O)N4N=CC[C@H]4c4cc(F)cc(F)c4)C3)c(F)cn2)n(C)n1 [compound 171, (S)-5-(4-((1-(5-(3,5-difluorophenyl)-4,5-dihydro-1H-pyrazole-1-carbonyl)azetidin-3-yl)oxy)-5-fluoropyridin-2-yl)-N,N,1-trimethyl-11H-pyrazole-3-carboxamide]",7.00 to 10.00
17,"Cn1nc(C(N)=O)cc1-c1cc(OC2CN(C(=O)N3N=CC[C@H]3c3cc(F)cc(F)c3)C2)c(F)cn1 [compound 172, (S)-5-(4-((1-(5-(3,5-difluorophenyl)-4,5-dihydro-1H-pyrazole-1-carbonyl)azetidin-3-yl)oxy)-5-fluoropyridin-2-yl)-1-methyl-1H-pyrazole-3-carboxamide]",7.00 to 10.00
18,"Cn1nc(C#N)cc1-c1cc(OC2CN(C(=O)N3N=CC[C@H]3c3cc(F)cc(F)c3)C2)c(F)cn1 [compound 173, (S)-5-(4-((1-(5-(3,5-difluorophenyl)-4,5-dihydro-1H-pyrazole-1-carbonyl)azetidin-3-yl)oxy)-5-fluoropyridin-2-yl)-1-methyl-11H-pyrazole-3-carbonitrile]",7.00 to 10.00
19,"Cn1nc(CO)cc1-c1cc(OC2CN(C(=O)N3N=CC[C@H]3c3cc(F)cc(F)c3)C2)c(F)cn1 [compound 174, (S)-(5-(3,5-difluorophenyl)-4,5-dihydro-1H-pyrazol-1-yl)(3-((5-fluoro-2-(3-(hydroxymethyl)-1-methyl-1H-pyrazol-5-yl)pyridin-4-yl)oxy)azetidin-1-yl)methanone]",7.00 to 10.00
20,"Cc1c(Cl)nn(C)c1-c1cc(OC2CN(C(=O)N3N=CC[C@H]3c3cc(F)cc(F)c3)C2)c(F)cn1 [compound 175, (S)-(3-((2-(3-chloro-1,4-dimethyl-1H-pyrazol-5-yl)-5-fluoropyridin-4-yl)oxy)azetidin-1-yl)(5-(3,5-difluorophenyl)-4,5-dihydro-1H-pyrazol-1-yl)methanone]",7.00 to 10.00
21,"CSc1nn(C)c(-c2cc(OC3CN(C(=O)N4N=CC[C@H]4c4cc(F)cc(F)c4)C3)c(F)cn2)c1C [compound 176, (S)-(5-(3,5-difluorophenyl)-4,5-dihydro-1H-pyrazol-1-yl)(3-((2-(1,4-dimethyl-3-(methylthio)-1H-pyrazol-5-yl)-5-fluoropyridin-4-yl)oxy)azetidin-1-yl)methanone]",7.00 to 10.00
22,"Cc1c(S(C)(=O)=O)nn(C)c1-c1cc(OC2CN(C(=O)N3N=CC[C@H]3c3cc(F)cc(F)c3)C2)c(F)cn1 [compound 177, (5-(3,5-difluorophenyl)-4,5-dihydro-1H-pyrazol-1-yl)(3-((2-(1,4-dimethyl-3-(methylsulfonyl)-1H-pyrazol-5-yl)-5-fluoropyridin-4-yl)oxy)azetidin-1-yl)methanone]",7.00 to 10.00
23,"CC(O)c1cnn(C)c1-c1cc(OC2CN(C(=O)N3N=CC[C@H]3c3cc(F)cc(F)c3)C2)c(F)cn1 (stereo partly drawn) [compound 179, ((S)-5-(3,5-difluorophenyl)-4,5-dihydro-1H-pyrazol-1-yl)(3-((5-fluoro-2-(4-(1-hydroxyethyl)-1-methyl-1H-pyrazol-5-yl)pyridin-4-yl)oxy)azetidin-1-yl)methanone]",6.00 to 7.00
24,"Cc1nc(CO)sc1-c1cc(OC2CN(C(=O)N3N=CC[C@H]3c3cc(F)cc(F)c3)C2)c(F)cn1 [compound 180, (S)-(5-(3,5-difluorophenyl)-4,5-dihydro-1H-pyrazol-1-yl)(3-((5-fluoro-2-(2-(hydroxymethyl)-4-methylthiazol-5-yl)pyridin-4-yl)oxy)azetidin-1-yl)methanone]",7.00 to 10.00
25,Cc1nn(C2CCNCC2)c(C)c1-c1cc(OC2CN(C(=O)N3N=CC[C@H]3c3cc(F)cc(F)c3)C2)c(F)cn1 [compound 181],7.00 to 10.00
